The numbers were not newly measured in patent publication US20070160667A1, “Controlled release formulation of divalproex sodium” (priority 2006, published 2007), which cites them from elsewhere.

Read-outs that look alike come from different tables or passages of the source.

Regarding `CCCC(CCC)C(=O)O` [valproic acid, 2-Propylpentanoic acid], the elimination half-life entry was “six and seventeen” (in adults); “four and fourteen” (in children).
